From patent publication US20230059009A1, “INHIBITORS OF LIN28 AND METHODS OF USE THEREOF” (The Regents of the University of California, priority 2019, published 2023)
“Also recorded” adds a separate entry of the source.

Columns and labels:
CYP 2C9 = CYP 2C9 (Homo sapiens, UniProt P11712); assay: CYP inhibition 2C9; type: in vitro ADME; set-up: unit not given here; conditions: Conc. 30 uM
H1568 = assay: Cell viability, MTT assay, H1568; type: cell-based
Protocol: (§1) To measure cell viability, cell titer glow (CTG, Promega CellTiter-Glo 2.0 Assay) and MTT assays (SigmaAldrich, Cell Proliferation Kit I) were performed. Briefly, cells were serum starved overnight prior to seeding in 96-well plates. Following 24 h incubation, cells were treated with increasing concentrations of JGJ compounds for 96 hr. At assay read-out, CellTiter-Glo reagent was added and luminescence was measured after 10-minutes incubation at room temperature. For the MTT assay, MTT labeling reagent was added and incubated for 4 h. Subsequently, medium was removed and 50 μL DMSO was added to solubilize the crystals, and absorbance was measured at 570 nm. Cell viability was calculated as (Sample-Background)/(Control-Background). Current standard of care drugs, Enzalutamide, Palbociclib and Cetuximab were used as comparative controls.

CYP 2C19 = CYP 2C19 (Homo sapiens, UniProt P33261); assay: CYP inhibition 2C19; type: in vitro ADME; set-up: unit not given here; conditions: Conc. 30 uM
Sequence of CYP 2C19 (P33261 whole entry): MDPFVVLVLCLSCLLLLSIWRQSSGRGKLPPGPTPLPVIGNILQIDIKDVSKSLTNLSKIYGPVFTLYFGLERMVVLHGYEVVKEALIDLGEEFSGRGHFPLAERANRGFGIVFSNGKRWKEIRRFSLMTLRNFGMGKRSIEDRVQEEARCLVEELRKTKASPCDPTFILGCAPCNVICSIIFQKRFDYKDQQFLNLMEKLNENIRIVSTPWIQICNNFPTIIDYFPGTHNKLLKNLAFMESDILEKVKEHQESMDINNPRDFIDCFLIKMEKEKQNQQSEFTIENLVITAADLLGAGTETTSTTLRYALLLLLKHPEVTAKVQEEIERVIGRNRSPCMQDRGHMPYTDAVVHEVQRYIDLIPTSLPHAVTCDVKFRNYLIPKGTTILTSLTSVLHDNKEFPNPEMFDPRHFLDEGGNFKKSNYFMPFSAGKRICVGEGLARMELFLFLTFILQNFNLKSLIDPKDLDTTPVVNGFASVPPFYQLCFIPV

DU145 = assay: Cell viability, MTT assay, DU145; type: cell-based; conditions: Homo sapiens, DU-145, DU145 (Prostate)
Protocol: as §1

MCF7 = assay: Cell viability, CTG, MCF7; type: cell-based; conditions: Homo sapiens, MCF7 (Breast)
Protocol: as §1

MDA-MB231 = assay: Cell viability, CTG, MDA-MB231; type: cell-based; conditions: Homo sapiens, MDA-MB-231, MDA-MB231 (Breast)
Protocol: as §1

CYP 2C8 = target: T1, CYP 2C8 (Homo sapiens, UniProt P10632); assay: CYP inhibition 2C8; type: in vitro ADME; set-up: unit not given here; conditions: Conc. 30 uM
T1 sequence (P10632 1-490): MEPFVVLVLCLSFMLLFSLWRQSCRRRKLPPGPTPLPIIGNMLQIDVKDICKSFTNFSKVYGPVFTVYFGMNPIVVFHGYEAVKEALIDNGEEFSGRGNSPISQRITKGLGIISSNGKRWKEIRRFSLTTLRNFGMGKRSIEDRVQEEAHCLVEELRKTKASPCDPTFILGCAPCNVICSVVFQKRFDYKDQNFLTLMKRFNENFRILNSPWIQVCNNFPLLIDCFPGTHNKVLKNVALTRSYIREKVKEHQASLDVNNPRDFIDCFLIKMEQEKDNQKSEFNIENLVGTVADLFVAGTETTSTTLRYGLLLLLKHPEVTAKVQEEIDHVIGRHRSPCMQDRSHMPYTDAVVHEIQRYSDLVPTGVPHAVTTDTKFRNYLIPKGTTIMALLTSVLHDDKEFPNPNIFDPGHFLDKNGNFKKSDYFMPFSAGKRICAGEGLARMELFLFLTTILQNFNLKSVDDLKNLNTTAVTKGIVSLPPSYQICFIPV

[1] = tested on: THP-1 cells (high LIN28B); assay: Subcutaneous THP-1 AML xenograft; type: in vivo, NSG / NSGS mice; conditions: for Tumor growth: 100 mg/kg
Protocol: Subsequently, the tumor suppressive effect of LN1632 in cancer in vivo was assessed. High LIN28B expressing THP-1 AML cells (2×10^6 cells) were implanted in NSGS mice (cell suspension in matrigel, 3:1) and at d+12 or d+8 (tumor size=50 mm^2) injection of LN1632 IP at 100 mg/kg daily was initiated. […] The effect of LN1632 in a systemic Kasumi-1 xenograft was also assessed. […] The effects of LN1632 to cytarabine chemotherapy (Ara-C) was also compared, as previously described (74). THP-1 AML cells were subcutaneously implanted (1.5×10^6 cells, high LIN28B) in NSGS mice. Daily IP injections with 100 mg/kg LN1632, 60 mg/kg cytarabine chemotherapy (Ara-C), or vehicle was started at +d3 post AML cell implantation and continued until the vehicle group reached maximal allowed tumor size (250 mm^2).

Caco2 = Caco2 permeability; type: in vitro ADME; conditions: Conc. 100 uM
PRPF31 = target: T2, PRPF31 (Homo sapiens, UniProt Q8WWY3); assay: MDA-MB-231 TNBC cell numbers with PRPF31 overexpression or silencing; type: cell-based; set-up: mGFP (C); host or cells: MDA-MB-231 TNBC cells; conditions: 100 μM LN1632
T2 sequence (Q8WWY3 1-499): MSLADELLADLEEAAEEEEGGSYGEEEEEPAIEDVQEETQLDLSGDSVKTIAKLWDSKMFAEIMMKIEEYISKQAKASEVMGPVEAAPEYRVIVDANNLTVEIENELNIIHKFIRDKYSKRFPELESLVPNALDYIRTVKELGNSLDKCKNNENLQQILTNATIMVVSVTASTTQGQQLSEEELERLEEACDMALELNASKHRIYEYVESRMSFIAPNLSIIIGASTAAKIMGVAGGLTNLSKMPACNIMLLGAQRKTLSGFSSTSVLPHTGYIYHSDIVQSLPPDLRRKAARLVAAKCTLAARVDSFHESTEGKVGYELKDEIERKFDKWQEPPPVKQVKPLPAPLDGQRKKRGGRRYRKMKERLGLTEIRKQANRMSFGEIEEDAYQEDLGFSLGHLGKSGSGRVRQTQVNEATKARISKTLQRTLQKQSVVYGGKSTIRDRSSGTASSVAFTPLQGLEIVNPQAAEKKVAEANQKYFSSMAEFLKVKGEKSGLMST
Text: MDA-MB-231 TNBC cells were used to evaluate whether LN1632 targets PRPF31.

Sequence of CYP 2C9 (P11712 whole entry): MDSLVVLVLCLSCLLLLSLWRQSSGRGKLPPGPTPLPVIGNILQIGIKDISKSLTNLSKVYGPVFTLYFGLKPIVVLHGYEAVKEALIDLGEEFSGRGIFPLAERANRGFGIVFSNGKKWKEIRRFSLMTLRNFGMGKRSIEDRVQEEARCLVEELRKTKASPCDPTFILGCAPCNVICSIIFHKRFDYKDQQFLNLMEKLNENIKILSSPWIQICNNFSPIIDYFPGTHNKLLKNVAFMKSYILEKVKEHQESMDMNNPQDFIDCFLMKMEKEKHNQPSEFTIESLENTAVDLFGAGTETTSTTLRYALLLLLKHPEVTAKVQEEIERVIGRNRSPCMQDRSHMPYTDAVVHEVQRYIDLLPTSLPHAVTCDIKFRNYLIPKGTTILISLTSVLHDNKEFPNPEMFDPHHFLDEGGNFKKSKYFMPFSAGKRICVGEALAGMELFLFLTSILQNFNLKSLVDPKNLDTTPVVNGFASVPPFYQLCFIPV

| Compound | CYP inhibition 2C9 (CYP 2C9) | IC50 (H1568; NCI-H1568, H1568 (Lung)) | CYP inhibition 2C19 (CYP 2C19) | IC50 (DU145) | IC50 (MCF7) | IC50 (MDA-MB231) | CYP inhibition 2C8 (CYP 2C8) | IC50 (H1568; H1568 (Lung)) | Tumor growth ([1]; THP-1 subQ in NSG mice, 100 mg/kg IP every other day) | Tumor growth ([1]; THP-1 subQ in NSGS mice, 100 mg/kg IP daily) | AML tumor proliferation, LN1632 vs Ara-C ([1]; THP-1 subQ in NSGS mice, daily IP 100 mg/kg LN1632 or 60 mg/kg Ara-C from +d3) | Caco2 Mean A-B % Recovery (Caco2) | Caco2 efflux ratio (Caco2) | Caco2 permeability Papp A-B (Caco2) | Caco2 permeability Papp B-A (Caco2) | Anti-proliferative / pro-apoptotic effect under PRPF31 overexpression or shRNA silencing (PRPF31) |
| --- | --- | --- | --- | --- | --- | --- | --- | --- | --- | --- | --- | --- | --- | --- | --- | --- |
| CC(=O)Nc1cccc(-c2ccc3ncc(C)n3n2)c1 [JGJ007, N-(3-(3-Methylimidazo[1,2-b]pyridazin-6-yl)phenyl)acetamide] | 24.65 | 47 µM | 37.08 | 5 µM | 115 µM | 43 µM | 19.11 | – | – | – | – | – | – | – | – | – |
| Cc1cnc2ccc(-c3cccc(F)c3)nn12 [JGJ015, 6-(3-Fluorophenyl)-3-methylimidazo[1,2-b]pyridazine] | 14.27 | – | 49.8 | 30 µM | – | 75 µM | 17.82 | – | – | – | – | – | – | – | – | – |
| CC(=O)N(C)c1cccc(-c2ccc3nnc(C)n3n2)c1 [LN1632] | – | – | – | – | – | – | – | 128 µM | significantly slowed tumor growth; also recorded: significantly reduced tumor growth | significantly reduced tumor growth 19 days post injection; also recorded: significantly slowed tumor growth | increased inhibition of AML tumor proliferation compared to Ara-C or vehicle treated mice; also recorded: inhibited proliferation | 89.4% | 1.08 | A-B: 20.9 10^−6 cm/s | B-A: 22.7 10^−6 cm/s | rescued anti-proliferative effects of LN1632; also recorded: abrogated pro-apoptotic effects of LN1632 |
